From patent US20090048214A1, “Methods for Treating Renal Tumors Using 2, 4-Pyrimidinediamine Drug and Prodrug Compounds” (RIGEL PHARMACEUTICALS, INC, priority 2006, published 2009)

Key:
T-47D = test: cells; settings: Homo sapiens, T47D, read-out: LC50
SN12C = test: cells; settings: Homo sapiens
MCF7 = test: cells; settings: Homo sapiens
MOLT-4 = test: cells; settings: Homo sapiens
HOP-62 = test: cells; settings: Homo sapiens
CCRF-CEM = test: cells; settings: Homo sapiens, read-out: LC50
IGROV1 = test: cells; settings: Homo sapiens
RPM1-8226 [1] = settings: RPM1-8226, Leukemia; besylate salt
SR = settings: Leukemia, besylate salt
RXF 393 [2] = settings: RXF 393, Renal Cancer; besylate salt
SF-268 = settings: SF-268, CNS Cancer; besylate salt
TK-10 = settings: TK-10, Renal Cancer; besylate salt
NCI-H23 [3] = settings: NCI-H23, Non-Small Cell Lung Cancer; besylate salt
SW-620 = test: cells; settings: Homo sapiens, SW-620, read-out: LC50
A549/ATCC = test: cells; settings: Homo sapiens, A549, read-out: LC50
MALME-3M [4] = settings: Melanoma, besylate salt
UO-31 = settings: UO-31, Renal Cancer; besylate salt
NCI-H23 [5] = test: cells; settings: Homo sapiens, NCI-H23, read-out: LC50
SK-OV-3 = settings: SK-OV-3, Ovarian Cancer; besylate salt
LOX I MVI = test: cells; settings: Homo sapiens, LOX IMVI
SK-MEL-2 = test: cells; settings: Homo sapiens
M14 [6] = settings: M14, Melanoma; besylate salt
PC-3 = test: cells; settings: Homo sapiens
MALME-3M [7] = test: cells; settings: Homo sapiens
RPM1-8226 [8] = test: cells; settings: Homo sapiens
RXF 393 [9] = test: cells; settings: Homo sapiens
U251 [10] = settings: U251, CNS Cancer; besylate salt
SNB-19 = test: cells; settings: Homo sapiens
UACC-257 [11] = settings: UACC-257, Melanoma; besylate salt
UACC-62 = test: cells; settings: Homo sapiens, UACC-62, read-out: LC50
BT-549 = settings: BT-549, Breast Cancer; besylate salt
MDA-MB-231/ATCC = test: cells; settings: Homo sapiens, MDA-MB-231, read-out: LC50
NCI-H460 = settings: NCI-H460, Non-Small Cell Lung Cancer; besylate salt
SF-295 = test: cells; settings: Homo sapiens, SF-295, read-out: LC50
M14 [12] = test: cells; settings: Homo sapiens
U251 [13] = test: cells; settings: Homo sapiens, U-251, read-out: LC50
UACC-257 [14] = test: cells; settings: Homo sapiens
A498 = test: cells; settings: Homo sapiens
HL-60(TB) = settings: Leukemia, besylate salt

Question: How did the CC50 (T-47D) turn out when COc1cc(Nc2ncc(F)c(Nc3ccc4c(n3)NC(=O)C(C)(C)O4)n2)cc(OC)c1OC [Compound 1] was run?
Answer: > 100 µM

Question: And the IC50 (SN12C; read-out: G150)?
Answer: 0.698 µM

Question: And the CC50 (SN12C; read-out: LC50)?
Answer: > 100 µM

Question: What about the IC50 (MCF7; MCF7, read-out: G150) of the same compound?
Answer: 2.72 µM

Question: And the CC50 (MCF7; MCF7, read-out: LC50)?
Answer: > 100 µM

Question: What about the IC50 (MOLT-4; MOLT-4, read-out: G150) of the same compound?
Answer: 4.82 µM

Question: What about the CC50 (MOLT-4; MOLT-4, read-out: LC50) of the same compound?
Answer: > 100 µM

Question: And the IC50 (HOP-62; HOP-62, read-out: G150)?
Answer: 0.537 µM

Question: What about the CC50 (HOP-62; HOP-62, read-out: LC50) of the same compound?
Answer: > 100 µM

Question: And the CC50 (CCRF-CEM)?
Answer: > 100 µM

Question: What about the IC50 (IGROV1; IGROV-1, read-out: G150) of the same compound?
Answer: 0.796 µM

Question: What about the CC50 (IGROV1; IGROV-1, read-out: LC50) of the same compound?
Answer: > 100 µM

Question: What about the TGI (RPM1-8226 [1]) of the same compound?
Answer: >1.00E−4

Question: What about the TGI (SR) of the same compound?
Answer: >1.00E−4

Question: And the TGI (RXF 393 [2])?
Answer: 7.74E−7

Question: What about the TGI (SF-268) of the same compound?
Answer: >1.00E−4

Question: And the TGI (TK-10)?
Answer: >1.00E−4

Question: What about the TGI (NCI-H23 [3]) of the same compound?
Answer: >1.00E−4

Question: What about the CC50 (SW-620) of the same compound?
Answer: > 100 µM

Question: And the CC50 (A549/ATCC)?
Answer: > 100 µM

Question: And the TGI (MALME-3M [4])?
Answer: >1.00E−4

Question: And the TGI (UO-31)?
Answer: >1.00E−4

Question: What about the CC50 (NCI-H23 [5]) of the same compound?
Answer: > 100 µM

Question: What about the TGI (SK-OV-3) of the same compound?
Answer: >1.00E−4

Question: What about the IC50 (LOX I MVI; read-out: G150) of the same compound?
Answer: 1.13 µM

Question: And the CC50 (LOX I MVI; read-out: LC50)?
Answer: > 100 µM

Question: What about the IC50 (SK-MEL-2; SK-MEL-2, read-out: G150) of the same compound?
Answer: > 100 µM

Question: And the CC50 (SK-MEL-2; SK-MEL-2, read-out: LC50)?
Answer: > 100 µM

Question: And the TGI (M14 [6])?
Answer: >1.00E−4

Question: And the IC50 (PC-3; PC-3, read-out: G150)?
Answer: 3.07 µM

Question: And the CC50 (PC-3; PC-3, read-out: LC50)?
Answer: > 100 µM

Question: And the IC50 (MALME-3M [7]; read-out: G150)?
Answer: > 100 µM

Question: And the CC50 (MALME-3M [7]; read-out: LC50)?
Answer: > 100 µM

Question: What about the IC50 (RPM1-8226 [8]; read-out: G150) of the same compound?
Answer: > 100 µM

Question: And the CC50 (RPM1-8226 [8]; read-out: LC50)?
Answer: > 100 µM

Question: What about the IC50 (RXF 393 [9]; RXF 393, read-out: G150) of the same compound?
Answer: 0.196 µM

Question: And the CC50 (RXF 393 [9]; RXF 393, read-out: LC50)?
Answer: > 100 µM

Question: What about the TGI (U251 [10]) of the same compound?
Answer: >1.00E−4

Question: And the IC50 (SNB-19; SNB-19, read-out: G150)?
Answer: > 100 µM

Question: What about the CC50 (SNB-19; SNB-19, read-out: LC50) of the same compound?
Answer: > 100 µM

Question: What about the TGI (UACC-257 [11]) of the same compound?
Answer: >1.00E−4

Question: And the CC50 (UACC-62)?
Answer: > 100 µM

Question: And the TGI (BT-549)?
Answer: >1.00E−4

Question: What about the CC50 (MDA-MB-231/ATCC) of the same compound?
Answer: > 100 µM

Question: And the TGI (NCI-H460)?
Answer: >1.00E−4

Question: And the CC50 (SF-295)?
Answer: > 100 µM

Question: What about the IC50 (M14 [12]; M14, read-out: G150) of the same compound?
Answer: > 100 µM

Question: What about the CC50 (M14 [12]; M14, read-out: LC50) of the same compound?
Answer: > 100 µM

Question: And the CC50 (U251 [13])?
Answer: > 100 µM

Question: What about the IC50 (UACC-257 [14]; UACC-257, read-out: G150) of the same compound?
Answer: > 100 µM

Question: And the CC50 (UACC-257 [14]; UACC-257, read-out: LC50)?
Answer: > 100 µM

Question: And the IC50 (A498; A498, read-out: G150)?
Answer: 0.36 µM

Question: And the CC50 (A498; A498, read-out: LC50)?
Answer: > 100 µM

Question: What about the TGI (HL-60(TB)) of the same compound?
Answer: >1.00E−4
